The source made the active and inactive calls. No cut-off for these calls is given here.
Experiments:
[1] = molecular target: T1, Histone-lysine N-methyltransferase EZH2 (Homo sapiens, UniProt Q15910); test: Inhibition of EZH2 methyltransferase activity in human PA-1 cells assessed as reduction in H3K27me3 level at 10 uM incubated for 3 days followed by compound washout and measured after 4 days by Western blot analysis; type: cell-based; details: time 3.0 day
Target sequence in this assay (Q15910 whole entry, looked up): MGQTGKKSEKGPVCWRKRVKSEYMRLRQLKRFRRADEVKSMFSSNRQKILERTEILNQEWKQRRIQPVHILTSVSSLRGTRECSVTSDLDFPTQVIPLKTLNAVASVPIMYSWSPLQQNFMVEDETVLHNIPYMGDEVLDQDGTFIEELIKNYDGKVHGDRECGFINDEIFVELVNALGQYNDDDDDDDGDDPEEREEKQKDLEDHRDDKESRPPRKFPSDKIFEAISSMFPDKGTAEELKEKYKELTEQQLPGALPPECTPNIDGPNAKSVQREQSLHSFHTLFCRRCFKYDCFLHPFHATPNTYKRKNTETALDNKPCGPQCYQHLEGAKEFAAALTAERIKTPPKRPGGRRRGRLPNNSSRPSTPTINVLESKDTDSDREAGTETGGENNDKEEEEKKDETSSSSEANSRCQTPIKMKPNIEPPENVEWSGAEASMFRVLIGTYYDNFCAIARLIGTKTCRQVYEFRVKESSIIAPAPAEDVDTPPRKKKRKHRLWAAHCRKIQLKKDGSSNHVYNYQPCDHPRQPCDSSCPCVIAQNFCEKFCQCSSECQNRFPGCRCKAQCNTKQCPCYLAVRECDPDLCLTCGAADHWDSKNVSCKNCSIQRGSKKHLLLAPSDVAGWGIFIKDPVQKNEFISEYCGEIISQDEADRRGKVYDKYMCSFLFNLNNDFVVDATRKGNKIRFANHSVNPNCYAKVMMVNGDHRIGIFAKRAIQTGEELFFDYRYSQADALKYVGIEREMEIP

4T1 = test: Antiproliferative activity against mouse 4T1 cells assessed as inhibition of cell proliferation incubated for 72 hrs by MTT assay; type: functional, cell-based; details: 4T1, 72 h
PA-1 [2] = test: Induction of apoptosis in human PA-1 cells assessed as late apoptotic cells at 5 uM incubated for 48 hrs by AnnexinV-FITC/PI staining based flow cytometry analysis (Rvb= 3.09%); type: functional
[3] = molecular target: T1, Histone-lysine N-methyltransferase EZH2; test: Inhibition of EZH2 methyltransferase activity in human PA-1 cells assessed as reduction in H3K27me3 level at 10 uM and measured upto 4 days by Western blot analysis; type: cell-based; details: time <= 4.0 day, TDE = time-dependent effect
Target sequence in this assay (Q15910 whole entry, looked up): as above

PA-1 [4] = test: Inhibition of colony formation in human PA-1 cells assessed as reduction in size of colonies at 0.25 to 10 uM incubated for 14 days with medium change every 3 days by crystal violet staining method; type: functional, cell-based; details: dose 0.25-10 µM, time 14.0 day
[5] = Toxicity in BALB/C nude mouse xenografted with human PA-1 cells assessed as pathological changes in spleen at 75 to 150 mg/kg,po BID for 21 days by H&E staining based microscopic analysis; type: organism-based; details: in vivo, 504 h, dose 75-150 mg/kg, time 21 day
[6] = molecular target: T1, Histone-lysine N-methyltransferase EZH2; test: Inhibition of wild type EZH2 (unknown origin) by AlphaLlSA assay
Target sequence in this assay (Q15910 whole entry): as the sequence (Q15910 whole entry, looked up) above

[7] = molecular target: T1, Histone-lysine N-methyltransferase EZH2; test: Binding affinity to wild type recombinant EZH2 (494 to 737 residues) (unknown origin) expressed in Escherichia coli assessed as adduct formation incubated for 2 hrs by LC-MS analysis
Target sequence in this assay (Q15910 whole entry, looked up): as above

A549 = test: Antiproliferative activity against human A549 cells assessed as inhibition of cell proliferation incubated for 72 hrs by MTT assay; type: functional, cell-based; details: A549, 72 h
A2780 [8] = test: Antiproliferative activity against human A2780 cells assessed as inhibition of cell proliferation incubated for 72 hrs by MTT assay; type: functional, cell-based; details: A2780, 72 h
PA-1 [9] = test: Induction of apoptosis in human PA-1 cells assessed as early apoptotic cells at 40 uM incubated for 48 hrs by AnnexinV-FITC/PI staining based flow cytometry analysis (Rvb= 6.89%); type: functional
[10] = molecular target: Protein arginine N-methyltransferase 7 (Homo sapiens) (UniProt Q9NVM4); test: Inhibition of PRMT7 (unknown origin) at 1 to 10 uM by AlphaLlSA assay; details: dose 1-10 µM
PA-1 [11] = test: Induction of apoptosis in human PA-1 cells assessed as early apoptotic cells at 20 uM incubated for 48 hrs by AnnexinV-FITC/PI staining based flow cytometry analysis (Rvb= 6.89%); type: functional
[12] = Tmax in Sprague-Dawley rat at 5 mg/kg, iv and measured upto 24 hrs by LC-MS/MS analysis; type: ADME, organism-based; details: in vivo
PA-1 [13] = test: Antitumor activity against human PA-1 cells xenografted in BALB/C nude mouse assessed as increase apoptosis by measuring cleaved caspase-3 positive cells at 75 to 150 mg/kg,po BID for 21 days by immunohistochemical analysis; type: functional, organism-based; details: dose 75-150 mg/kg, time 21.0 day
[14] = molecular target: Protein arginine N-methyltransferase 5 (Homo sapiens) (UniProt O14744); test: Inhibition of PRMT5 (unknown origin) at 1 to 10 uM by AlphaLlSA assay; details: dose 1-10 µM
[15] = Oral bioavailability in Sprague-Dawley rat at 100 mg/kg and measured upto 24 hrs by LC-MS/MS analysis; type: ADME, organism-based; details: in vivo
[16] = Toxicity in BALB/C nude mouse xenografted with human PA-1 cells assessed as pathological changes in serum biochemical values at 75 to 150 mg/kg,po BID for 21 days; type: organism-based; details: in vivo, 504 h, dose 75-150 mg/kg, time 21 day
PA-1 [17] = test: Induction of apoptosis in human PA-1 cells assessed as late apoptotic cells at 20 uM incubated for 48 hrs by AnnexinV-FITC/PI staining based flow cytometry analysis (Rvb= 3.09%); type: functional
PA-1 [18] = test: Induction of apoptosis in human PA-1 cells assessed as necrotic cells at 5 uM incubated for 48 hrs by AnnexinV-FITC/PI staining based flow cytometry analysis (Rvb= 1.48%); type: functional
[19] = tested on: Histone-lysine N-methyltransferase EZH2 (Homo sapiens), Q15910 [Y641F]; test: Inhibition of EZH2 […] mutant (unknown origin) at 1 nM by AlphaLlSA assay
PA-1 [20] = test: Inhibition of colony formation in human PA-1 cells assessed as reduction in number of colonies at 0.25 to 10 uM incubated for 14 days with medium change every 3 days by crystal violet staining method; type: functional, cell-based; details: dose 0.25-10 µM, time 14.0 day
[21] = molecular target: N-lysine methyltransferase SMYD2 (Homo sapiens) (UniProt Q9NRG4); test: Inhibition of SMYD2 (unknown origin) at 1 to 10 uM by AlphaLlSA assay; details: dose 1-10 µM
A2780 [22] = test: Inhibition of colony formation in human A2780 cells assessed as reduction in size of colonies at 0.25 to 10 uM incubated for 14 days with medium change every 3 days by crystal violet staining method; type: functional, cell-based; details: dose 0.25-10 µM, time 14.0 day
[23] = molecular target: N-lysine methyltransferase KMT5A (Homo sapiens) (UniProt Q9NQR1); test: Inhibition of SETD8 (unknown origin) at 1 to 10 uM by AlphaLlSA assay; details: dose 1-10 µM
OVCAR-3 = test: Antiproliferative activity against human OVCAR-3 cells assessed as inhibition of cell proliferation incubated for 72 hrs by MTT assay; type: functional, cell-based; details: OVCAR-3, 72 h
[24] = Cmax in Sprague-Dawley rat at 5 mg/kg, iv and measured upto 24 hrs by LC-MS/MS analysis; type: ADME, organism-based; parameters: dose 5 mg/kg, time < 24 hrs, route iv; details: in vivo
PA-1 [25] = test: Antitumor activity against human PA-1 cells xenografted in BALB/C nude mouse assessed as reduction tumor cell proliferation at 75 to 150 mg/kg,po BID for 21 days by Ki67 staining based immunohistochemical analysis; type: functional, organism-based; details: dose 75-150 mg/kg, time 21.0 day
PA-1 [26] = test: Antiproliferative activity against human PA-1 cells assessed as reduction in cell viability at 10 uM incubated for 3 days followed by compound washout and measured after 4 days by microscopy analysis; type: functional, cell-based; details: time 3.0 day
HEY = test: Antiproliferative activity against human HEY cells assessed as inhibition of cell proliferation incubated for 72 hrs by MTT assay; type: functional, cell-based
[27] = tested on: Histone-lysine N-methyltransferase EZH2 (Homo sapiens), Q15910 [A677G]; details: dose 10.0 nM
Description: Inhibition of EZH2 A667G mutant (unknown origin) at 10 nM by AlphaLlSA assay

[28] = tested on: Histone-lysine N-methyltransferase EZH2 (Homo sapiens), Q15910 [Y641F]; details: dose 10.0 nM
Description: Inhibition of EZH2 Y614F mutant (unknown origin) at 10 nM by AlphaLlSA assay

PA-1 [29] = test: Induction of apoptosis in human PA-1 cells assessed as viable cells at 20 uM incubated for 48 hrs by AnnexinV-FITC/PI staining based flow cytometry analysis (Rvb= 88.53%); type: functional; details: read-out: Activity
PA-1 [30] = test: Induction of apoptosis in human PA-1 cells assessed as viable cells at 5 uM incubated for 48 hrs by AnnexinV-FITC/PI staining based flow cytometry analysis (Rvb= 88.53%); type: functional; details: read-out: Activity
PA-1 [31] = test: Antitumor activity against human PA-1 cells xenografted in BALB/C nude mouse assessed as tumor growth inhibition at 75 mg/kg,po BID for 21 days; type: functional; details: PA-1, 504 h, time 21 day, read-out: TGI

Chain of Histone-lysine N-methyltransferase EZH2 (Homo sapiens), Q15910 [Y641F] (Q15910 whole entry Y641F, looked up): as the sequence (Q15910 whole entry, looked up) above, with Y641F counted along it
Chain of Histone-lysine N-methyltransferase EZH2 (Homo sapiens), Q15910 [A677G] (Q15910 whole entry A677G): as the sequence (Q15910 whole entry, looked up) above, with A677G counted along it
Chain of N-lysine methyltransferase SMYD2 (Homo sapiens) (Q9NRG4 whole entry): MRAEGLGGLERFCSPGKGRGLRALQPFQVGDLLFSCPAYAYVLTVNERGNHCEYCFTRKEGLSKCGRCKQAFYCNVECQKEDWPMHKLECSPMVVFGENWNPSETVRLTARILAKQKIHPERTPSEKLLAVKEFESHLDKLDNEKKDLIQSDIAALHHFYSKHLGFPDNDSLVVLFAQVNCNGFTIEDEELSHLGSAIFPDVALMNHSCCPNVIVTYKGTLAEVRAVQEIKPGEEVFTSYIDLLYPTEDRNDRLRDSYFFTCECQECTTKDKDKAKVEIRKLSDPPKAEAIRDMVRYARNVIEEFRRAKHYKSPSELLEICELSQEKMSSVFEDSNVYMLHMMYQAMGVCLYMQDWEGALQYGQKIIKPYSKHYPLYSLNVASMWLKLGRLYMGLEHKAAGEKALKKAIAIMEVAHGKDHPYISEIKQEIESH
Chain of N-lysine methyltransferase KMT5A (Homo sapiens) (Q9NQR1 whole entry): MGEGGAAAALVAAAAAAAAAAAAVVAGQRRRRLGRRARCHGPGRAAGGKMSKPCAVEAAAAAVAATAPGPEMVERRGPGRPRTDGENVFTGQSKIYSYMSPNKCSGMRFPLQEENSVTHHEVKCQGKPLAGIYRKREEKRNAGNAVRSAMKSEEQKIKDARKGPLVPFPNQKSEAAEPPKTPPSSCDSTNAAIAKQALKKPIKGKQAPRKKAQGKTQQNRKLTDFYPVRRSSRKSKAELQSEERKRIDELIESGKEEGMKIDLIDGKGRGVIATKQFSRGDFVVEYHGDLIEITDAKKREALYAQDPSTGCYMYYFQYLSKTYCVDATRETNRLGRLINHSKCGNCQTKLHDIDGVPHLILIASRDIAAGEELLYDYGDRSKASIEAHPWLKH
Chain of Protein arginine N-methyltransferase 7 (Homo sapiens) (Q9NVM4 whole entry): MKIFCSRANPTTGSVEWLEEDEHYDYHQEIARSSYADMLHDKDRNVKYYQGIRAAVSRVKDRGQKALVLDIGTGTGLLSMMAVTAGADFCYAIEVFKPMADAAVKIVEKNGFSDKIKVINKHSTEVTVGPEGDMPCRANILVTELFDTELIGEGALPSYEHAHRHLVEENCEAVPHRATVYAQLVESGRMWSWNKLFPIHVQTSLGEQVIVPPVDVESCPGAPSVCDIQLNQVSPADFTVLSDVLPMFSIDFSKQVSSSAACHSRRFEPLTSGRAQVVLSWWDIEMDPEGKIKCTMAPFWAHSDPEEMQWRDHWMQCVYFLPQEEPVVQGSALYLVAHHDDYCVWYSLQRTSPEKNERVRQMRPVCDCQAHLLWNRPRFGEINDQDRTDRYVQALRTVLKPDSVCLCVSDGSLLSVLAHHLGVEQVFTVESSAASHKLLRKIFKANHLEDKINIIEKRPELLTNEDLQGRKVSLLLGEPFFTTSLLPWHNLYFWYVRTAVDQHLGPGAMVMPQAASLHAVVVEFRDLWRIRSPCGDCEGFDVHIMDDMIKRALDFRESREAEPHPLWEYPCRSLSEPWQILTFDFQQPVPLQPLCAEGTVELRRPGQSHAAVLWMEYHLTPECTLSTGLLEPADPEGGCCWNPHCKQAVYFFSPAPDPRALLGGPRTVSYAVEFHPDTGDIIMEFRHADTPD
Chain of Protein arginine N-methyltransferase 5 (Homo sapiens) (O14744 whole entry): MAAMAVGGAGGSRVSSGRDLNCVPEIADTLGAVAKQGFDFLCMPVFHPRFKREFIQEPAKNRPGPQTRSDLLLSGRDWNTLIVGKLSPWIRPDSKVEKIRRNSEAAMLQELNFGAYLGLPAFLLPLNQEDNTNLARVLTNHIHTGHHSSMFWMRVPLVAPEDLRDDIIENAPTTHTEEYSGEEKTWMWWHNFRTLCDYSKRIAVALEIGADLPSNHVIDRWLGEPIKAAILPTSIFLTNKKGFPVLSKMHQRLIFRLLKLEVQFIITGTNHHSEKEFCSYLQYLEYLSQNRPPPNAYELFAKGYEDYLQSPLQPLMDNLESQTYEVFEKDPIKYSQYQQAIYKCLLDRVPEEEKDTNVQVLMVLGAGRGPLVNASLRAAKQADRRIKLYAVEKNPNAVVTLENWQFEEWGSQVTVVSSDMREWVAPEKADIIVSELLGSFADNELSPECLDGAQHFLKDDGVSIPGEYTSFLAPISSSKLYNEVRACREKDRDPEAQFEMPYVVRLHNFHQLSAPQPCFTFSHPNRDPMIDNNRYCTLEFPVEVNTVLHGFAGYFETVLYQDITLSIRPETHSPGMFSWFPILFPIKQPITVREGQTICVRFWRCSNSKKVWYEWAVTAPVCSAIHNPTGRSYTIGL

C=CC(=O)Nc1ccc(C)c(-c2cc(C(=O)NCc3c(C)cc(C)[nH]c3=O)c(C)c(N(CC)C3CCOCC3)c2)c1
inhibition [1]: Active | IC50 (4T1): 24.5 µM | Activity (PA-1 [2]): 5.21% | inhibition [3]: Tde | inhibition (PA-1 [4]): Dose-Dependent Effect | Activity [5]: Non-Toxic | IC50 [6]: 0.00172 µM | Activity [7]: Active | IC50 (A549): 28.7 µM | IC50 (A2780 [8]): 11.2 µM | Activity (PA-1 [9]): 87.19% | inhibition [10]: inactive | Activity (PA-1 [11]): 31.78% | Tmax [12]: 4.8 min | Activity (PA-1 [13]): Active | inhibition [14]: inactive | bioavailability [15]: 8.73% | Activity [16]: Non-Toxic | Activity (PA-1 [17]): 14.41% | Activity (PA-1 [18]): 1.22% | inhibition [19]: Active | inhibition (PA-1 [20]): Dose-Dependent Effect | inhibition [21]: inactive | inhibition (A2780 [22]): Dose-Dependent Effect | inhibition [23]: inactive | IC50 (OVCAR-3): 35.6 µM | Cmax [24]: 22800 ng/mL | Activity (PA-1 [25]): Active | Activity (PA-1 [26]): Active | IC50 (HEY): 35.5 µM | inhibition [27]: Active | inhibition [28]: Active | viability at 20 µM (PA-1 [29]): 50.5% | viability at 5 µM (PA-1 [30]): 83.2% | inhibition in vivo at 75 mg/kg (PA-1 [31]): 45.3%

Reference: ChEMBL document CHEMBL5316326, “Discovery of a Novel Covalent EZH2 Inhibitor Based on Tazemetostat Scaffold for the Treatment of Ovarian Cancer” (J Med Chem, 2023)
